# Laboratory results from patent US20040048827A1, “S-adenosylmethionine and derivatives thereof for the treatment and prevention of alzheimer's disease” (priority 2000, published 2004).
# Entries after “also recorded” stand apart in the source; their conditions may differ.
# Experiments:
# presenilin-1 (PS1) gene = experiment: RT-PCR expression of presenilin-1 gene in SK-N-SH cells; format: cell-based, human
# Procedure: (§1) SK-N-SH human neuroblastoma cell line was cultured, respectively, in HAM F14 (14) medium supplemented with 8-% foetal calf serum (GM), in F14 medium supplemented with 1% foetal calf serum and 10 μM retinopic acid (DM) and in DM, in the presence of 100 μM SAM. The cultures were re-fed every second day with the appropriate medium. The times indicate-are referred-to medium change as O-day.
# (§2) Total RNA extraction was carried out using the acidified phenol procedure. For the expression studies by RT-PCR a reverse transcription was performed with 1 μg of total RNA using 50 pmol of oligo-d(T>)16 with 50 units of M-MuLV reverse transcriptase at 42° C. for one hour, followed by heat inactivation at 94° C. for 5 minutes. […] The subsequent amplification reactions were carried out for 20 to 30 cycles (1′ at 94° C., 1′ at annealing temperature, 1′30″ at 72° C.). The use of β-actin as internal standard allowed to control the processing of equal amount samples.
# (§3) Aliquots of the PCR products (15 μl) were examined by electrophoresis in 1.5% agarose gel. Each gel was scanned by a CCD camera and acquired on a computerised densitometer. The specificity of the fragments was assessed by restriction analysis.
# [1] = tested on: β-amyloid protein precursor (APP) gene; experiment: RT-PCR expression of β-amyloid protein precursor gene in SK-N-SH cells; format: cell-based, human
# Procedure: as §1, §2, §3
# β-secretase gene = experiment: RT-PCR expression of β-secretase gene in SK-N-SH cells; format: cell-based, human
# Procedure: as §1, §2, §3
# presenilin-2 (PS2) gene = experiment: RT-PCR expression of presenilin-2 gene in SK-N-SH cells; format: cell-based, human
# Procedure: as §1, §2, §3
# [2] = tested on: SK-N-SH human neuroblastoma cells; experiment: HPLC assay of S-adenosylmethionine passage into the cells; format: in vitro ADME
# Procedure: as §1
# Cell cultures were rinsed twice with phosphate buffered saline and frozen at −80° C. After thawing cells were scraped into 1 ml of deionized water and sonified for 15 seconds in ice. The macromolecules were precipitated from 1.5 M PCA at 4° C. for 1 hour adjusting the pH at 4-5 with KOH and then centrifuged for 15 minutes at 9000×g. The supernatants were freeze-dried. The HPLC measurements were carried out using a Varian HPLC System. The samples were dissolved in water and injected onto reverse-phase column (C-18) using a water-acetonitrile mobile-phase.
# presenilin-1 protein = experiment: Western blot of presenilin-1 protein in SK-N-SH cells; format: cell-based, human; conditions: DM with 100 μM SAM, 120 hours (5 days) of culture
# Procedure: as §1
# (§4) Detergent lysates were prepared from SK-N-SH cells in the presence of protease inhibitors (leupeptin, pepstatin, PMSF, 5 μg/ml each); protein extracts were performed after 5 days of culture in either GM or DM or DM supplemented with 100 μM SAM.
# (§5) 10 μg of each protein extract were run on 8% PAGE for APP analysis and on 12% PAGE for PS1 analysis, and then blotted on nitrocellulose. APP was detected by a monoclonal antibody 22C11 (Boerhinger Mannheim) recognising three major bands at 116, 110, 106 KD. PS1 was detected by a monoclonal antibody (MAB1563 Chemicon) recognising a 31 KD band.
# APP = experiment: Western blot of APP in SK-N-SH cells; format: cell-based, human; conditions: GM, DM, DM with 100 μM SAM, 120 hours of culture
# Procedure: as §1, §4, §5
# Adam 10 gene = experiment: RT-PCR expression of Adam 10 (α-secretase) gene in SK-N-SH cells; format: cell-based, human; conditions: SAM in DM, 48 and 96 hours of culture (signal apparent only at 48 hours)
# Procedure: as §1, §2, §3
# Adam 17 gene = experiment: RT-PCR expression of Adam 17 (α-secretase) gene in SK-N-SH cells; format: cell-based, human; conditions: SAM in DM, 48 and 96 hours of culture
# Procedure: as §1, §2, §3
# Notch1 gene = experiment: RT-PCR expression of Notch1 gene in SK-N-SH cells; format: cell-based, human; conditions: SAM in DM, 48 and 96 hours of culture
# Procedure: as §1, §2, §3
# 1-40 β-amyloid peptide = experiment: ELISA of 1-40 β-amyloid peptide production in SK-N-SH cell culture supernatants; format: cell-based, human; conditions: SAM in DM vs DM, supernatants after 96 and 120 hours, normalised to cell protein
# Procedure: as §1
# Cell culture supernatants were collected and frozen after 96 and 120 hours from the beginning of the culture. Successively they were concentrated using Amicon micro-concentrators according to the manufacturer instructions. 100 μl of concentrated medium were used to perform the immunoassay employing, according to the manufacturer instructions, the Biosource International kit for the detection of 1-40 amyloid. The amount of β-amyloid was normalised to the concentration of the proteins extracted from the corresponding cell lysates.
# [3] = DM with 100 μM SAM, 96 hours, compared to 96 hours without SAM
# [4] = SK-N-SH cells, administration into the cell culture, RT-PCR
compound,measurement,setting,value
"C[S+](CC[C@H](N)C(=O)O)C[C@H]1O[C@@H](n2cnc3c(N)ncnc32)[C@H](O)[C@@H]1O (stereo partly drawn) [SAM, S-adenosylmethionine]",PS1 gene expression at 48 hours,"presenilin-1 (PS1) gene; DM with 100 μM SAM, 48 hours",accelerate the gene expression
same,PS1 gene expression at 96 hours,presenilin-1 (PS1) gene; [3],markedly down-regulated
same,APP gene expression at 48 hours,"[1]; DM with 100 μM SAM, 48 hours",accelerate the gene expression
same,APP gene expression at 96 hours,[1]; [3],did not increase and resulted inhibited
same,β-secretase gene expression at 48 hours,"β-secretase gene; DM with 100 μM SAM, 48 hours",accelerate the gene expression
same,β-secretase gene expression at 96 hours,β-secretase gene; [3],did not increase and resulted inhibited
same,PS2 gene expression at 48 hours,"presenilin-2 (PS2) gene; DM with 100 μM SAM, 48 hours",accelerate the gene expression
same,PS2 gene expression at 96 hours,presenilin-2 (PS2) gene; [3],did not increase and resulted inhibited
same,SAM in treated cell lysate relative to endogenous SAM,[2],6 fold
same,presenilin-1 protein synthesis (Western blot),presenilin-1 protein,marked reduction
same,APP isoforms level (Western blot),APP,did not change
same,Adam 10 gene expression,Adam 10 gene,the same as that detectable in DM
same,Adam 10 gene expression,Adam 10 gene; listed as S-adenosylmethionine,increased
same,Adam 17 gene expression,Adam 17 gene,over-expression
same,Adam 17 gene expression,Adam 17 gene; listed as S-adenosylmethionine,increased
same,Notch1 gene expression,Notch1 gene,comparable to that observed in GM at 48 hours; also recorded: does not modify
same,Notch1 gene expression,Notch1 gene; listed as S-adenosylmethionine,increased
same,1-40 β-amyloid peptide production,1-40 β-amyloid peptide,reduces the same remarkably
same,1-40 β-amyloid peptide production,1-40 β-amyloid peptide; listed as S-adenosylmethionine,reduced
S-adenosylmethionine disulfonate,presenilin-1 gene expression,presenilin-1 (PS1) gene; [4],remarkable repression
same,β-amyloid protein precursor gene expression,[1]; [4],block of the expression increase
same,β-secretase gene expression,β-secretase gene; [4],block of the expression increase
same,presenilin-2 gene expression,presenilin-2 (PS2) gene; [4],block of the expression increase
same,presenilin-1 protein synthesis (Western blot),presenilin-1 protein,dramatic decrease
